Molecular target: PI3K delta (Homo sapiens, UniProt O00329)
Experiment: Luciferase-coupled chemiluminescence kinase assay (ATP consumption, KinaseGlo)
Format: biochemical
Experimental: Kinase activity and compound inhibition were investigated using one or more of the assay formats described below. The ATP concentrations used in the various assays were approximately equal to or less than the KM for each of the respective kinases. Dose-response experiments were performed using an intra-plate dilution scheme with 10 different inhibitor concentrations in a 384-well microtiter plate. IC50 values were calculated by nonlinear regression analysis using the four-parameter equation listed below:
Y=min+(max−min)/(1+(X/IC50)^N) Equation 1
Typically N should approximate unity. Curve fitting was performed using XLFit or ActivityBase.
Kinase activity is measured as the percent of ATP consumed following the kinase reaction using luciferase-luciferin-coupled chemiluminescence. […] Kinase reactions were initiated by combining test compounds, kinase, and ATP in a 20 μL volume (6 μL volume for 1536-well plate). The reaction mixture was incubated at ambient temperature for 2 h. Following the kinase reaction, a 20 μL (or […] for 1536-well plate) aliquot of KinaseGlo (Promega) was added and the chemiluminescence signal measured using an EnVision plate reader (Perkin Elmer).

PI3K delta, sequence (O00329 whole entry): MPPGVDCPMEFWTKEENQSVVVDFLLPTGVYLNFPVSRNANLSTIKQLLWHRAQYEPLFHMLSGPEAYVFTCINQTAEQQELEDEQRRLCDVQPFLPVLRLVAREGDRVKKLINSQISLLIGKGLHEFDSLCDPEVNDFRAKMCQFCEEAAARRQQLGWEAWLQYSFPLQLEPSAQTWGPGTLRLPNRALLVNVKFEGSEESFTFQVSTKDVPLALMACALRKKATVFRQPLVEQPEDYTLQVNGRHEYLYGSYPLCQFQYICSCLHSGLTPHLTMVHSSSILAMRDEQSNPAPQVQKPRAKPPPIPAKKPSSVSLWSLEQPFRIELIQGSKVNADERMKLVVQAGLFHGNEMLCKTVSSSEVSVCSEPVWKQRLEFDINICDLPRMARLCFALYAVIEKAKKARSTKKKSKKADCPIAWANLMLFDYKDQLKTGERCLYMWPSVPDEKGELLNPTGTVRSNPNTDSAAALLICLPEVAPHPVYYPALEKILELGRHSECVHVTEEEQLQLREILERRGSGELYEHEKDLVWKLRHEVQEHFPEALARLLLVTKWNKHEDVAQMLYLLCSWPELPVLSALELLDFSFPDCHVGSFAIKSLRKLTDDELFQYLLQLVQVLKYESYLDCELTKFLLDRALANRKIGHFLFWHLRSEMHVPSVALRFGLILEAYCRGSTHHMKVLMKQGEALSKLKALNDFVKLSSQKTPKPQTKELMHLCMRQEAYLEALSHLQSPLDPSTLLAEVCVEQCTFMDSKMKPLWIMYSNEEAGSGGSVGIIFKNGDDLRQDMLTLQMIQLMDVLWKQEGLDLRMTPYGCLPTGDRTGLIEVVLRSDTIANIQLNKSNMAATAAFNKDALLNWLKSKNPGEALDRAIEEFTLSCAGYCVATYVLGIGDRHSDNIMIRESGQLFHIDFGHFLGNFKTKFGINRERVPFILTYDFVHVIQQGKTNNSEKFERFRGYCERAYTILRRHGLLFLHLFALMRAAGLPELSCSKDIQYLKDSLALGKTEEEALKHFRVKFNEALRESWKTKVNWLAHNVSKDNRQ
PI3K delta, sequence (P27986 whole entry partner): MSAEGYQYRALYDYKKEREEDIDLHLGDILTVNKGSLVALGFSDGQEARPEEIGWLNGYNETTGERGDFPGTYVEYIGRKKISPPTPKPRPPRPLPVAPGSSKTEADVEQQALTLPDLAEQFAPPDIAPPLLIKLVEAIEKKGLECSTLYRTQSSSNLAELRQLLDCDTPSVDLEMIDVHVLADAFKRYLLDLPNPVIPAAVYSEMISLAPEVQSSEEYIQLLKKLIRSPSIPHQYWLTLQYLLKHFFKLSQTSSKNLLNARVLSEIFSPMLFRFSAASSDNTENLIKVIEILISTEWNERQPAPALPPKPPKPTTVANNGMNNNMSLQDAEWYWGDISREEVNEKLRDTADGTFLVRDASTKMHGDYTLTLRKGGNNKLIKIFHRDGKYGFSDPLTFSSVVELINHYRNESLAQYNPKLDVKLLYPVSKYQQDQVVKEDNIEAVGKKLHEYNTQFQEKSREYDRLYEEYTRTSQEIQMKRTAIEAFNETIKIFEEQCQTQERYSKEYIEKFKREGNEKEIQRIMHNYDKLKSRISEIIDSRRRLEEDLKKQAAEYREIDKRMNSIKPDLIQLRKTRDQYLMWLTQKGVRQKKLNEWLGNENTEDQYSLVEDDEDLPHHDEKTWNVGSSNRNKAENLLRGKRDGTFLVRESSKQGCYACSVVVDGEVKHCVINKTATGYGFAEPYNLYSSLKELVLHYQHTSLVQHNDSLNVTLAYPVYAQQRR

Question: For `Cn1c(-c2nnc(C3CC3)o2)nc2c(N3CCC(n4c(=O)[nH]c5ccccc54)CC3)ncnc21` [Compound 125, 1-{1-[8-(5-cyclopropyl-1,3,4-oxadiazol-2-yl)-9-methyl-9H-purin-6-yl]piperidin-4-yl}-1,3-dihydro-2H-benzimidazol-2-one], which IC50 is on record?
Answer: < 50 nM

Question: With `Cn1c(C(=O)N2CCC2)nc2c(N3CCC4(CC3)C(=O)Nc3ccccc34)ncnc21` [Compound 90, 1′-[8-(azetidin-1-ylcarbonyl)-9-methyl-9H-purin-6-yl]spiro[indole-3,4′-piperidin]-2(1H)-one] as the molecule, how does the IC50 read?
Answer: 250 to 500 nM

Question: With `Cc1ccc(S(=O)(=O)N2CCN(c3ncnc4c3nc(-c3cnn(C)c3)n4C)CC2)cc1` [Compound 370, 9-methyl-6-{4-[(4-methylphenyl)sulfonyl]-piperazin-1-yl)-8-(1-methyl-1H-pyrazol-4-yl)-9H-purine] as the molecule, how does the IC50 read?
Answer: 500 to 1500 nM

Question: For `CCCCCNC(=O)c1nc2c(N3CCC(n4c(=O)[nH]c5ccccc54)CC3)ncnc2n1C` [Compound 70, 9-methyl-6-[4-(2-oxo-2,3-dihydro-1H-benzimidazol-1-yl)piperidin-1-yl]-N-pentyl-9H-purine-8-carboxamide], which IC50 is on record?
Answer: 250 to 500 nM

Question: `CCn1c(C(=O)NCCC(C)C)nc2c(N3CCC4(CC3)C(=O)Nc3ccccc34)ncnc21` [Compound 225, 9-ethyl-N-(3-methylbutyl)-6-(2-oxo-1,2-dihydro-1′H-spiro[indole-3,4′-piperidin]-1′-yl)-9H-purine-8-carboxamide] was tested. Which IC50 did it give?
Answer: 50 to 250 nM

Question: `Cn1cc(-c2nc3c(N4CCN(c5cccc(OCC(=O)NC6CCCCC6)c5)CC4)ncnc3n2C)cn1` [Compound 358, N-cyclohexyl-2-[(3-{4-[9-methyl-8-(1-methyl-1H-pyrazol-4-yl)-9H-purin-6-yl]piperazin-1-yl}phenyl)oxy]acetamide] was tested. Which IC50 did it give?
Answer: 500 to 1500 nM

Question: With `COc1ccc(CNC(=O)c2nc3c(N4CCC(n5c(=O)[nH]c6ccccc65)CC4)ncnc3n2C)cc1` [Compound 59, 9-methyl-N-{[4-(methyloxy)phenyl]methyl}-6-[4-(2-oxo-2,3-dihydro-1H-benzimidazol-1-yl)piperidin-1-yl]-9H-purine-8-carboxamide] as the molecule, how does the IC50 read?
Answer: 250 to 500 nM

Question: How did the IC50 turn out when `CCn1cc(-c2nc3c(N4CCC(n5c(=O)[nH]c6ncccc65)CC4)ncnc3n2CC)cn1` [Compound 325, 1-{1-[9-ethyl-8-(1-ethyl-1H-pyrazol-4-yl)-9H-purin-6-yl]piperidin-4-yl}-1,3-dihydro-2H-imidazo[4,5-b]pyridin-2-one] was run?
Answer: < 50 nM

Question: Which IC50 does the source give for `CN(C)CCOc1cccc2c1[nH]c(=O)n2C1CCN(c2ncnc3c2nc(C(=O)NCC2CC2)n3C)CC1` [Compound 276, N-(cyclopropylmethyl)-6-[4-(4-{[2-(dimethylamino)ethyl]oxy}-2-oxo-2,3-dihydro-1H-benzimidazol-1-yl)piperidin-1-yl]-9-methyl-9H-purine-8-carboxamide] here?
Answer: 250 to 500 nM

Question: For `Cn1c(C(=O)NCCc2ccccn2)nc2c(N3CCC4(CC3)C(=O)Nc3ccccc34)ncnc21` [Compound 21, 9-methyl-6-(2-oxo-1,2-dihydro-1′H-spiro[indole-3,4′-piperidin]-1′-yl)-N-(2-pyridin-2-ylethyl)-9H-purine-8-carboxamide], which IC50 is on record?
Answer: 500 to 1500 nM

Question: `Cn1c(C(=O)N2CC[C@@H](F)C2)nc2c(N3CCC4(CC3)C(=O)Nc3ccccc34)ncnc21` [Compound 110, 1′-(8-{[(3R)-3-fluoropyrrolidin-1-yl]carbonyl}-9-methyl-9H-purin-6-yl)spiro[indole-3,4′-piperidin]-2(1H)-one] was tested. Which IC50 did it give?
Answer: 50 to 250 nM

Question: Which IC50 does the source give for `Cc1ncc(-c2nc3c(N4CCC(n5c(=O)[nH]c6ncccc65)CC4)ncnc3n2C)n1C` [Compound 336, 1-{1-[8-(1,2-dimethyl-1H-imidazol-5-yl)-9-methyl-9H-purin-6-yl]piperidin-4-yl)-1,3-dihydro-2H-imidazo[4,5-b]pyridin-2-one] here?
Answer: < 50 nM

Question: For `CCn1c(C(=O)NCC(C)C)nc2c(N3CCC4(CC3)C(=O)Nc3ccccc34)ncnc21` [Compound 164, 9-ethyl-N-(2-methylpropyl)-6-(2-oxo-1,2-dihydro-1′H-spiro[indole-3,4′-piperidin]-1′-yl)-9H-purine-8-carboxamide], which IC50 is on record?
Answer: < 50 nM

Question: With `CCn1c(C(=O)NCC(F)(F)F)nc2c(N3CCC(n4c(=O)[nH]c5ccccc54)CC3)ncnc21` [Compound 155, 9-ethyl-6-[4-(2-oxo-2,3-dihydro-1H-benzimidazol-1-yl)piperidin-1-yl]-N-(2,2,2-trifluoroethyl)-9H-purine-8-carboxamide] as the molecule, how does the IC50 read?
Answer: < 50 nM

Question: Which IC50 does the source give for `Cn1c(C(=O)NCc2ccc3c(c2)OCO3)nc2c(N3CCC(n4c(=O)[nH]c5ccccc54)CC3)ncnc21` [Compound 50, N-(1,3-benzodioxol-5-ylmethyl)-9-methyl-6-[4-(2-oxo-2,3-dihydro-1H-benzimidazol-1-yl)piperidin-1-yl]-9H-purine-8-carboxamide] here?
Answer: 250 to 500 nM

Question: How did the IC50 turn out when `Cn1cc(-c2nc3c(N4CCC(n5c(=O)[nH]c6cnccc65)CC4)ncnc3n2C)cn1` [Compound 341, 1-{1-[9-methyl-8-(1-methyl-1H-pyrazol-4-yl)-9H-purin-6-yl]piperidin-4-yl}-1,3-dihydro-2H-imidazo[4,5-c]pyridin-2-one] was run?
Answer: 250 to 500 nM

Question: With `CCn1c(C(=O)NC(C)C2CC2)nc2c(N3CCC(n4c(=O)[nH]c5ccccc54)CC3)ncnc21` (stereo not shown) [Compound 187, N-(1-cyclopropylethyl)-9-ethyl-6-[4-(2-oxo-2,3-dihydro-1H-benzimidazol-1-yl)piperidin-1-yl]-9H-purine-8-carboxamide] as the molecule, how does the IC50 read?
Answer: < 50 nM

Question: `Cn1c(C(=O)N2CC[C@H](F)C2)nc2c(N3CCC(n4c(=O)[nH]c5ccccc54)CC3)ncnc21` [Compound 396, 1-[1-(8-{[(3S)-3-fluoropyrrolidin-1-yl]carbonyl)-9-methyl-9H-purin-6-yl)piperidin-4-yl]-1,3-dihydro-2H-benzimidazol-2-one] was tested. Which IC50 did it give?
Answer: 50 to 250 nM

Question: For `COC(=O)c1nc2c(N3CCC4(CC3)C(=O)Nc3ccccc34)ncnc2n1C` [Compound 76, Methyl 9-methyl-6-(2-oxo-1,2-dihydro-1′H-spiro[indole-3,4′-piperidin]-1′-yl)-9H-purine-8-carboxylate], which IC50 is on record?
Answer: 500 to 1500 nM

Question: How did the IC50 turn out when `CN(C)c1ccc(-c2nc3c(N4CCC(n5c(=O)[nH]c6ncccc65)CC4)ncnc3n2C)cn1` [Compound 365, 1-(1-{8-[6-(dimethylamino)pyridin-3-yl]-9-methyl-9H-purin-6-yl}piperidin-4-yl)-1,3-dihydro-2H-imidazo[4,5-b]pyridin-2-one] was run?
Answer: < 50 nM

Question: Which IC50 does the source give for `CC(NC(=O)c1nc2c(N3CCC4(CC3)C(=O)Nc3ccccc34)ncnc2n1C)C1CC1` (stereo not shown) [Compound 84, N-(1-cyclopropylethyl)-9-methyl-6-(2-oxo-1,2-dihydro-1′H-spiro[indole-3,4′-piperidin]-1′-yl)-9H-purine-8-carboxamide] here?
Answer: 50 to 250 nM

Question: `CCn1c(C(=O)N2CC[C@@H](F)C2)nc2c(N3CCC(n4c(=O)[nH]c5ccccc54)CC3)ncnc21` [Compound 186, 1-[1-(9-ethyl-8-{[(3R)-3-fluoropyrrolidin-1-yl]carbonyl}-9H-purin-6-yl)piperidin-4-yl]-1,3-dihydro-2H-benzimidazol-2-one] was tested. Which IC50 did it give?
Answer: < 50 nM

Question: How did the IC50 turn out when `CCn1cc(-c2nc3c(N4CCC5(CC4)C(=O)Nc4ccccc45)ncnc3n2C)cn1` [Compound 237, 1′-[8-(1-Ethyl-1H-pyrazol-4-yl)-9-methyl-9H-purin-6-yl]spiro[indole-3,4′-piperidin]-2(1H)-one] was run?
Answer: < 50 nM

Question: `Cn1c(C(=O)NCC2CC2)nc2c(N3CCC4(CC3)CC(=O)c3ccccc34)ncnc21` [Compound 119, N-(cyclopropylmethyl)-9-methyl-6-(3-oxo-2,3-dihydro-1′H-spiro[indene-1,4′-piperidin]-1′-yl)-9H-purine-8-carboxamide] was tested. Which IC50 did it give?
Answer: 250 to 500 nM

Question: Which IC50 does the source give for `CC1CC(n2c(=O)[nH]c3ccccc32)CCN1c1ncnc2c1nc(C(=O)NCC1CC1)n2C` (stereo not shown) [Compound 277, N-(cyclopropylmethyl)-9-methyl-6-[2-methyl-4-(2-oxo-2,3-dihydro-1H-benzimidazol-1-yl)piperidin-1-yl]-9H-purine-8-carboxamide] here?
Answer: 50 to 250 nM

Question: For `CCn1cc(-c2nc3c(N4CCN(c5ccccc5)CC4)ncnc3n2C)cn1` [Compound 368, 8-(1-ethyl-1H-pyrazol-4-yl)-9-methyl-6-(4-phenylpiperazin-1-yl)-9H-purine], which IC50 is on record?
Answer: 500 to 1500 nM

Question: `Cn1cc(-c2nc3c(N4CCC(C#N)(c5ccccc5)CC4)ncnc3n2C)cn1` [Compound 263, 1-[9-Methyl-8-(1-methyl-1H-pyrazol-4-yl)-9H-purin-6-yl]-4-phenylpiperidine-4-carbonitrile] was tested. Which IC50 did it give?
Answer: 50 to 250 nM

Question: For `Cn1c(C(=O)NCC2CC2)nc2c(N3CCN(C4=NS(=O)(=O)c5ccccc54)CC3)ncnc21` [Compound 264, N-(cyclopropylmethyl)-6-[4-(1,1-dioxido-1,2-benzisothiazol-3-yl)piperazin-1-yl]-9-methyl-9H-purine-8-carboxamide], which IC50 is on record?
Answer: 500 to 1500 nM

Question: Which IC50 does the source give for `CC(C)CNC(=O)c1nc2c(N3CCC(n4c(=O)[nH]c5ccccc54)CC3)ncnc2n1CC(F)(F)F` [Compound 183, N-(2-methylpropyl)-6-[4-(2-oxo-2,3-dihydro-1H-benzimidazol-1-yl)piperidin-1-yl]-9-(2,2,2-trifluoroethyl)-9H-purine-8-carboxamide] here?
Answer: 250 to 500 nM

Question: How did the IC50 turn out when `Cn1c(-c2ccnnc2)nc2c(N3CCC(n4c(=O)[nH]c5ccccc54)CC3)ncnc21` [Compound 280, 1-[1-(9-methyl-8-pyridazin-4-yl-9H-purin-6-yl)piperidin-4-yl]-1,3-dihydro-2H-benzimidazol-2-one] was run?
Answer: 50 to 250 nM

Question: With `CCn1c(-c2cnn(C)c2C)nc2c(N3CCC(n4c(=O)[nH]c5ccccc54)CC3)ncnc21` [Compound 260, 1-{1-[8-(1,5-dimethyl-1H-pyrazol-4-yl)-9-ethyl-9H-purin-6-yl]piperidin-4-yl}-1,3-dihydro-2H-benzimidazol-2-one] as the molecule, how does the IC50 read?
Answer: < 50 nM
